Source: the supplement of paper PMC4862054

What was measured:
Details in all cases: incubation time: 72 h
HCC1937 [1] = test: normalised response (% of control), CellTiter-Glo; higher = more viable cells (100 = DMSO, 0 = benzethonium chloride kill control)
Experimental: (§1)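 DSRT, 72 h incubation, CellTox Green / CellTiter-Glo readout. Signal is normalised to DMSO and benzethonium chloride controls. Value is the normalised response at dose 3.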

HCC1599 [2] = test: as above
Experimental: as §1

CAL-120 [3] = test: as above
Experimental: as §1

SK-BR-3 = test: as above
Experimental: as §1

MDA-MB-453 [4] = test: as above
Experimental: as §1

MDA-MB-436 [5] = test: as above
Experimental: as §1

MDA-MB-231 [6] = test: as above
Experimental: as §1

HDQ-P1 [7] = test: as above
Experimental: as §1

BT-474 [8] = test: as above
Experimental: as §1

DU-4475 [9] = test: as above
Experimental: as §1

BT-549 [10] = test: as above
Experimental: as §1

CAL-148 [11] = test: as above
Experimental: as §1

MCF-10A [12] = test: as above
Experimental: as §1

CAL-51 [13] = test: as above
Experimental: as §1

Hs578T [14] = test: as above
Experimental: as §1

HCC1143 [15] = test: as above
Experimental: as §1

CAL-85-1 [16] = test: as above
Experimental: as §1

MDA-MB-468 [17] = test: as above
Experimental: as §1

MFM-223 [18] = test: as above
Experimental: as §1

HCC1937 [19] = test: normalised response (% of control), CellTox Green; higher = less cell death (100 = DMSO, 0 = benzethonium chloride kill control)
Method in brief: (§2)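 Breast cancer cell lines were exposed for 72 h in 384-well plates to compound at 5 concentrations, 10-fold apart, covering a 10,000-fold range fixed for each compound. Plates were read for CellTox Green fluorescence and CellTiter-Glo luminescence and normalised to 0.1 % DMSO (100) and a positive kill control (0). Each value is the normalised signal at one concentration of the series.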

HCC1599 [20] = test: as above
Method in brief: as §2

CAL-120 [21] = test: as above
Method in brief: as §2

MDA-MB-453 [22] = test: as above
Method in brief: as §2

MDA-MB-436 [23] = test: as above
Method in brief: as §2

MDA-MB-231 [24] = test: as above
Method in brief: as §2

HDQ-P1 [25] = test: as above
Method in brief: as §2

BT-474 [26] = test: as above
Method in brief: as §2

DU-4475 [27] = test: as above
Method in brief: as §2

BT-549 [28] = test: as above
Method in brief: as §2

CAL-148 [29] = test: as above
Method in brief: as §2

MCF-10A [30] = test: as above
Method in brief: as §2

CAL-51 [31] = test: as above
Method in brief: as §2

Hs578T [32] = test: as above
Method in brief: as §2

CAL-85-1 [33] = test: as above
Method in brief: as §2

MDA-MB-468 [34] = test: as above
Method in brief: as §2

MFM-223 [35] = test: as above
Method in brief: as §2

HCC1143 [36] = test: as above
Method in brief: as §2

| SMILES | normalised response (HCC1937 [1]) | normalised response (HCC1599 [2]) | normalised response (CAL-120 [3]) | normalised response (SK-BR-3) | normalised response (MDA-MB-453 [4]) | normalised response (MDA-MB-436 [5]) | normalised response (MDA-MB-231 [6]) | normalised response (HDQ-P1 [7]) | normalised response (BT-474 [8]) | normalised response (DU-4475 [9]) | normalised response (BT-549 [10]) | normalised response (CAL-148 [11]) | normalised response (MCF-10A [12]) | normalised response (CAL-51 [13]) | normalised response (Hs578T [14]) | normalised response (HCC1143 [15]) | normalised response (CAL-85-1 [16]) | normalised response (MDA-MB-468 [17]) | normalised response (MFM-223 [18]) | normalised response (HCC1937 [19]) | normalised response (HCC1599 [20]) | normalised response (CAL-120 [21]) | normalised response (MDA-MB-453 [22]) | normalised response (MDA-MB-436 [23]) | normalised response (MDA-MB-231 [24]) | normalised response (HDQ-P1 [25]) | normalised response (BT-474 [26]) | normalised response (DU-4475 [27]) | normalised response (BT-549 [28]) | normalised response (CAL-148 [29]) | normalised response (MCF-10A [30]) | normalised response (CAL-51 [31]) | normalised response (Hs578T [32]) | normalised response (CAL-85-1 [33]) | normalised response (MDA-MB-468 [34]) | normalised response (MFM-223 [35]) | normalised response (HCC1143 [36]) |
| --- | --- | --- | --- | --- | --- | --- | --- | --- | --- | --- | --- | --- | --- | --- | --- | --- | --- | --- | --- | --- | --- | --- | --- | --- | --- | --- | --- | --- | --- | --- | --- | --- | --- | --- | --- | --- | --- |
| CN(C)C/C=C/C(=O)Nc1cc2c(Nc3ccc(F)c(Cl)c3)ncnc2cc1O[C@H]1CCOC1 [Afatinib] (10 nM) | 97.6% | 118% | 94% | 64.6% | 88.6% | 96% | 99.3% | 81.2% | 98.9% | 106% | 112% | 97.9% | 59.3% | 87.7% | 101% | 106% | 97% | 98.1% | 104% | 113% | 109% | 95.5% | 82.9% | 96.1% | 96.5% | 101% | 95.2% | 97.6% | 67.8% | 97.5% | 12.3% | 109% | 97.6% | 94.8% | 70.8% | 69% | – |
| CN1CC[C@H](c2c(O)cc(O)c3c(=O)cc(-c4ccccc4Cl)oc23)[C@H](O)C1 [Alvocidib] (100 nM) | 99.2% | 108% | 86.2% | 87.8% | 122% | 75.9% | 90.8% | 86.5% | 85.8% | 94.1% | 95.5% | 100% | 100% | 81.3% | 103% | 102% | 104% | 91.9% | 96.9% | 113% | 108% | 97.2% | 106% | 69.6% | 69% | 92.7% | 98.4% | 96.8% | 101% | 103% | 91.8% | 102% | – | 91.1% | 111% | 106% | 114% |
| Nc1nc(Cl)nc2c1ncn2[C@H]1C[C@H](O)[C@@H](CO)O1 [Cladribine] (10 nM) | 92.6% | 106% | 102% | 108% | 105% | 102% | 100% | 95.8% | 99.6% | 102% | 105% | 99.5% | 99.5% | 84.4% | 101% | 101% | 101% | 102% | 104% | 88.3% | 95% | 102% | 58.9% | – | 109% | 62.4% | 100% | 102% | 97.8% | 80.9% | 102% | 106% | – | 107% | – | 104% | 53.3% |
| COc1cccc2c1C(=O)c1c(O)c3c(c(O)c1C2=O)C[C@@](O)(C(=O)CO)C[C@@H]3O[C@H]1C[C@H](N)[C@H](O)[C@H](C)O1 [Doxorubicin] (10 nM) | 101% | 98.8% | 98.1% | 107% | 106% | 92.5% | 104% | 102% | 103% | 104% | 103% | 111% | 98.4% | 91.8% | 106% | 109% | 103% | 106% | 108% | 91.2% | 118% | 96.7% | 105% | 94.8% | – | 110% | 98% | 101% | 82.1% | 107% | 90% | 107% | 111% | 100% | 91.5% | 107% | 112% |
| CC(=O)O[C@]1(C(C)=O)CC[C@H]2[C@@H]3C=C(C)C4=CC(=O)CC[C@]4(C)[C@H]3CC[C@@]21C [Megestrol acetate] (100 nM) | 104% | 102% | 96.5% | 94.3% | 86.9% | 101% | 111% | 95.6% | 109% | 99.4% | 109% | 97.4% | 104% | 109% | 106% | 95.7% | 104% | 90.4% | 99.1% | 68.3% | 83.5% | 103% | 104% | 107% | 116% | 81.5% | 101% | 99.9% | 95.4% | 66.4% | 64.5% | 105% | – | 103% | 149% | 99.2% | 74% |
| COc1cccc2cc(-c3nc([C@H]4CC[C@H](C(=O)O)CC4)n4ncnc(N)c34)[nH]c12 [OSI-027] (100 nM) | 98.2% | 114% | 92.9% | 77.3% | 74.2% | 92% | 95.3% | 97% | 94.8% | 100% | 98.3% | 100% | 86.7% | 103% | 95.3% | 101% | 96.6% | 92.1% | 91.3% | 90.9% | 102% | 97.6% | 101% | – | 76.7% | 114% | 99.4% | 98.5% | 93.2% | 102% | 98.3% | 105% | 108% | 95.9% | 77.1% | 105% | – |
| OC[C@H]1O[C@@H](n2cnc3c2N=CNC[C@H]3O)C[C@@H]1O [Pentostatin] (100 nM) | 99.4% | 107% | 103% | 100% | 101% | 96.6% | 106% | 99% | 93.3% | 106% | 96.1% | 97.8% | 102% | 86.6% | 104% | 104% | 100% | 96.9% | 100% | 96.4% | 100% | 103% | 103% | 90.5% | 123% | 77.7% | 101% | 101% | 99.5% | 55.8% | 94.7% | 102% | – | 106% | 104% | 99.5% | 88.7% |
| N#CC[C@H](C1CCCC1)n1cc(-c2ncnc3[nH]ccc23)cn1 [Ruxolitinib] (100 nM) | 102% | 94% | 96.3% | 88.4% | 85.7% | 93.8% | 97.9% | 100% | 96.6% | 95.8% | 103% | 87.1% | 84.2% | 113% | 94.4% | 98.2% | 95.1% | 96.6% | 90.5% | 91.7% | 95% | 103% | 99% | 83.7% | – | 94.4% | 97.1% | 96.2% | 108% | 78.4% | 86.5% | 99.5% | 60.9% | 97.7% | 52.5% | 98.4% | 96.9% |
